One may read the pIC50 as the IC50 on a negative log10 scale, so that one unit is a factor of ten. Read a high pIC50 as a low IC50.

For the experiment, the target named is T1, hMAGL (Homo sapiens, UniProt Q99685).
T1 sequence (Q99685 1-303): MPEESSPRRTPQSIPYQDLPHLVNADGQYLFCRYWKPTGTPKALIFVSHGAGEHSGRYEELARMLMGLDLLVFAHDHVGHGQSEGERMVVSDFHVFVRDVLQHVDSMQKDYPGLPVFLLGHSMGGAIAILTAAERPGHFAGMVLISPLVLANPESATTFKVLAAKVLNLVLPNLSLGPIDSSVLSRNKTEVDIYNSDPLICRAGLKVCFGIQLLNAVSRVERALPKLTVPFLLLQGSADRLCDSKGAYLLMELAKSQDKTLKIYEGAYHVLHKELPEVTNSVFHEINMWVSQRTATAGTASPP
The experiment in a line: 2-AG assay: MAGL inhibition, hydrolysis of 2-arachidonoylglycerol to arachidonic acid followed by mass spectrometry. The experiment is classed as biochemical. In a few lines: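 Read-out is LC-MS/MS of arachidonic acid released from 2-arachidonoylglycerol (8 μM final), normalised to d8-arachidonic acid internal standard after acetonitrile quench. Enzyme […] and compound were pre-mixed 15 min, then reacted 30 min, both at RT, in Tris/EDTA buffer with 0.01% Tween-20 and 2.5% DMSO.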

The structures appear in SMILES notation. pIC50: −log10 of the molar value.

Turning to `O=C(N1CC2(CC(n3cnc(C(F)(F)F)n3)C2)C1)N1CC2(CN(Cc3cnn(C(F)(F)F)c3)C2)C1` [Example 181, [6-[[1-(trifluoromethyl)pyrazol-4-yl]methyl]-2,6-diazaspiro[3.3]heptan-2-yl]-[6-[3-(trifluoromethyl)-1,2,4-triazol-1-yl]-2-azaspiro[3.3]heptan-2-yl]methanone], the pIC50 is 6.88.

With `O=C(N1CC2(CC(Cc3cn(CC(F)(F)F)nc3C(F)(F)F)C2)C1)N1CC2(CC(n3cnc(C(F)(F)F)n3)C2)C1` [Example 121, [6-[[1-(2,2,2-trifluoroethyl)-3-(trifluoromethyl)pyrazol-4-yl]methyl]-2-azaspiro[3.3]heptan-2-yl]-[6-[3-(trifluoromethyl)-1,2,4-triazol-1-yl]-2-azaspiro[3.3]heptan-2-yl]methanone], the pIC50 was 9.46.

Turning to `Cc1nc(C(F)(F)F)c(CN2CC3(C2)CN(C(=O)N2CC4(CC(n5cnc(C6(O)CC6)n5)C4)C2)C3)s1` [Example 87, [6-[3-(1-hydroxycyclopropyl)-1,2,4-triazol-1-yl]-2-azaspiro[3.3]heptan-2-yl]-[6-[[2-methyl-4-(trifluoromethyl)thiazol-5-yl]methyl]-2,6-diazaspiro[3.3]heptan-2-yl]methanone], the pIC50 is 6.45.

With `CC(C)(C)c1nnc(CN2CC3(C2)CN(C(=O)N2CC4(CC(n5cnc(C6CC6)n5)C4)C2)C3)s1` [Example 209, [6-[(5-tert-butyl-1,3,4-thiadiazol-2-yl)methyl]-2,6-diazaspiro[3.3]heptan-2-yl]-[6-(3-cyclopropyl-1,2,4-triazol-1-yl)-2-azaspiro[3.3]heptan-2-yl]methanone], the pIC50 was 8.28.

In turn, `Cc1nc(C)c(CN2CC3(C2)CN(C(=O)N2CC4(CC(n5cnc(C6CC6)n5)C4)C2)C3)s1` [Example 302, [6-(3-cyclopropyl-1,2,4-triazol-1-yl)-2-azaspiro[3.3]heptan-2-yl]-[6-[(2,4-dimethylthiazol-5-yl)methyl]-2,6-diazaspiro[3.3]heptan-2-yl]methanone] showed a pIC50 of 8.01.

With `Cn1cnc(C#N)c1CN1CC2(C1)CN(C(=O)N1CC3(CC(n4cnc(C5CC5)n4)C3)C1)C2` [Example 281, 5-[[2-[6-(3-cyclopropyl-1,2,4-triazol-1-yl)-2-azaspiro[3.3]heptane-2-carbonyl]-2,6-diazaspiro[3.3]heptan-6-yl]methyl]-1-methyl-imidazole-4-carbonitrile], the pIC50 was 6.79.

Regarding `Cn1cnc(CN2CC3(C2)CN(C(=O)N2CC4(CC(n5cnc(C6CC6)n5)C4)C2)C3)c1` [Example 305, [6-(3-cyclopropyl-1,2,4-triazol-1-yl)-2-azaspiro[3.3]heptan-2-yl]-[6-[(1-methylimidazol-4-yl)methyl]-2,6-diazaspiro[3.3]heptan-2-yl]methanone], the pIC50 was 5.54.

`O=C(N1CC2(CC(n3cnc(C4CC4)n3)C2)C1)N1CC2(CN(Cc3sncc3C(F)(F)F)C2)C1` [Example 179, [6-(3-cyclopropyl-1,2,4-triazol-1-yl)-2-azaspiro[3.3]heptan-2-yl]-[6-[[4-(trifluoromethyl)isothiazol-5-yl]methyl]-2,6-diazaspiro[3.3]heptan-2-yl]methanone] gave a pIC50 of 8.70.

For `O=C(N1CC2(CCN(Cc3nc(C(F)(F)F)cs3)CC2)C1)N1CC2(CC(c3cc(C4CC4)n[nH]3)C2)C1` [Example 174, [6-(3-cyclopropyl-1H-pyrazol-5-yl)-2-azaspiro[3.3]heptan-2-yl]-[7-[[4-(trifluoromethyl)thiazol-2-yl]methyl]-2,7-diazaspiro[3.5]nonan-2-yl]methanone], the pIC50 is 8.32.

`CC(C)(C)c1nnc(CN2CC3(C2)CN(C(=O)N2CC4(CC(n5cnc(C(F)(F)F)n5)C4)C2)C3)s1` [Example 208, [6-[(5-tert-butyl-1,3,4-thiadiazol-2-yl)methyl]-2,6-diazaspiro[3.3]heptan-2-yl]-[6-[3-(trifluoromethyl)-1,2,4-triazol-1-yl]-2-azaspiro[3.3]heptan-2-yl]methanone] gave a pIC50 of 8.43.

For `O=C(N1CC2(CC(n3cnc(C(F)(F)F)n3)C2)C1)N1CC2(CN(Cc3cc[nH]n3)C2)C1` [Example 284, [6-(1H-pyrazol-3-ylmethyl)-2,6-diazaspiro[3.3]heptan-2-yl]-[6-[3-(trifluoromethyl)-1,2,4-triazol-1-yl]-2-azaspiro[3.3]heptan-2-yl]methanone], the pIC50 was 5.64.

`O=C(N1CC2(CC(n3cnc(C(F)(F)F)n3)C2)C1)N1CC2(CN(Cc3coc(C(F)(F)F)n3)C2)C1` [Example 213, [6-[[2-(trifluoromethyl)oxazol-4-yl]methyl]-2,6-diazaspiro[3.3]heptan-2-yl]-[6-[3-(trifluoromethyl)-1,2,4-triazol-1-yl]-2-azaspiro[3.3]heptan-2-yl]methanone] gave a pIC50 of 6.77.

On to `O=C(N1CC2(CCN(Cc3cc(C(F)(F)F)sn3)CC2)C1)N1CC2(CC(n3cnc(C(F)(F)F)n3)C2)C1` [Example 46, [7-[[5-(trifluoromethyl)isothiazol-3-yl]methyl]-2,7-diazaspiro[3.5]nonan-2-yl]-[6-[3-(trifluoromethyl)-1,2,4-triazol-1-yl]-2-azaspiro[3.3]heptan-2-yl]methanone], for which the pIC50 was 7.96.

As to `O=C(N1CC2(CC(n3cnc(C4CC4)n3)C2)C1)N1CC2(CN(Cc3cn[nH]c3C(F)(F)F)C2)C1` [Example 50, [6-(3-cyclopropyl-1,2,4-triazol-1-yl)-2-azaspiro[3.3]heptan-2-yl]-[6-[[5-(trifluoromethyl)-1H-pyrazol-4-yl]methyl]-2,6-diazaspiro[3.3]heptan-2-yl]methanone], the pIC50 is 8.10.

For `O=C(N1CC2(CC(Cn3cnc(C4(C(F)(F)F)CC4)n3)C2)C1)N1CC2(CC(c3cc(C4CC4)n[nH]3)C2)C1` [Example 74, [6-(3-cyclopropyl-1H-pyrazol-5-yl)-2-azaspiro[3.3]heptan-2-yl]-[6-[[3-[1-(trifluoromethyl)cyclopropyl]-1,2,4-triazol-1-yl]methyl]-2-azaspiro[3.3]heptan-2-yl]methanone], the negative logarithm of the IC50 (pIC50) was 9.38.

Take `O=C(N1CC2(CC(Cc3n[nH]c(C4(C(F)(F)F)CC4)n3)C2)C1)N1CC2(CC(n3cnc(C(F)(F)F)n3)C2)C1` [Example 101, [6-[[5-[1-(trifluoromethyl)cyclopropyl]-1H-1,2,4-triazol-3-yl]methyl]-2-azaspiro[3.3]heptan-2-yl]-[6-[3-(trifluoromethyl)-1,2,4-triazol-1-yl]-2-azaspiro[3.3]heptan-2-yl]methanone]: the pIC50 was 9.05.

Compound `O=C(N1CC2(CC(n3cnc(C4CC4)n3)C2)C1)N1CC2(CN(Cc3snnc3C3CCC3)C2)C1` [Example 77, [6-[(4-cyclobutylthiadiazol-5-yl)methyl]-2,6-diazaspiro[3.3]heptan-2-yl]-[6-(3-cyclopropyl-1,2,4-triazol-1-yl)-2-azaspiro[3.3]heptan-2-yl]methanone] had a pIC50 of 8.79.

`O=C(N1CC2(CC(n3cnc(C4CC4)n3)C2)C1)N1CC2(CN(Cc3ccnn3C(F)(F)F)C2)C1` [Example 226, [6-(3-cyclopropyl-1,2,4-triazol-1-yl)-2-azaspiro[3.3]heptan-2-yl]-[6-[[2-(trifluoromethyl)pyrazol-3-yl]methyl]-2,6-diazaspiro[3.3]heptan-2-yl]methanone] showed a pIC50 of 7.46.

For `O=C(N1CC2(CC(Cc3cc(C4CC4)[nH]n3)C2)C1)N1CC2(CC(n3cnc(C(F)F)n3)C2)C1` [Example 342, [6-[(5-cyclopropyl-1H-pyrazol-3-yl)methyl]-2-azaspiro[3.3]heptan-2-yl]-[6-[3-(difluoromethyl)-1,2,4-triazol-1-yl]-2-azaspiro[3.3]heptan-2-yl]methanone], the pIC50 is 8.49.

As for `O=C(N1CC2(CC(n3cnc(C(F)(F)F)n3)C2)C1)N1CC2(CN(Cc3ccnn3CC(F)(F)F)C2)C1` [Example 222], the pIC50 was 6.69.

`Cc1cc(C(F)(F)F)n(CC2CC3(C2)CN(C(=O)N2CC4(CC(n5cnc(C(F)(F)F)n5)C4)C2)C3)n1` [Example 71, [6-[[3-methyl-5-(trifluoromethyl)pyrazol-1-yl]methyl]-2-azaspiro[3.3]heptan-2-yl]-[6-[3-(trifluoromethyl)-1,2,4-triazol-1-yl]-2-azaspiro[3.3]heptan-2-yl]methanone] gave a pIC50 of 8.43.

Turning to `O=C(N1CC2(CC(c3cc(C4CC4)n[nH]3)C2)C1)N1CC2(CN(Cc3cc(C(F)(F)F)ns3)C2)C1` [Example 151, [6-(3-cyclopropyl-1H-pyrazol-5-yl)-2-azaspiro[3.3]heptan-2-yl]-[6-[[3-(trifluoromethyl)isothiazol-5-yl]methyl]-2,6-diazaspiro[3.3]heptan-2-yl]methanone], the pIC50 was 8.67.

As to `Cn1nc(C(F)(F)F)cc1CC1CC2(C1)CN(C(=O)N1CC3(CC(n4cnc(C5(O)CC5)n4)C3)C1)C2` [Example 288, [6-[3-(1-hydroxycyclopropyl)-1,2,4-triazol-1-yl]-2-azaspiro[3.3]heptan-2-yl]-[6-[[2-methyl-5-(trifluoromethyl)pyrazol-3-yl]methyl]-2-azaspiro[3.3]heptan-2-yl]methanone], the pIC50 was 8.61.

In the case of `Cn1nccc1CN1CC2(C1)CN(C(=O)N1CC3(CC(n4cnc(C5CC5)n4)C3)C1)C2` [Example 277, [6-(3-cyclopropyl-1,2,4-triazol-1-yl)-2-azaspiro[3.3]heptan-2-yl]-[6-[(2-methylpyrazol-3-yl)methyl]-2,6-diazaspiro[3.3]heptan-2-yl]methanone], the pIC50 is 6.45.
